Results published in patent US20240043404A1 (AbbVie Inc., priority 2009, published 2024).
Read-outs that look alike come from different tables or passages of the source.

Tested on: RS4;11 cells
Assay: RS4;11 cell viability assay (CellTiter Glo);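 note: acute lymphoblastic leukemia line RS4,11, EC50 derived from percentage of viable cells after treatment relative to untreated controls, cell killing taken as a measure of Bcl-2 inhibition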
Format: cell-based, human
Conditions: Homo sapiens, read-out: RS4
[1] = RS4-11, 48 h, 50,000 cells per well, 10% human serum, 48 hours, 11 EC50 Values

Description: The acute lymphoblastic leukemia (ALL) cell line RS4;11 was used as the primary human cell line to assess the cellular activity of Bcl-2 selective agents in vitro and their efficacy in vivo.
Cell cytotoxicity EC50 values were assessed using CellTiter Glo (Promega) according to the manufacturer's recommendations. The EC50 values were determined as a percentage of viable cells following treatment compared to the untreated control cells.

SMILES: CN1CCC(F)(COc2ccc(S(=O)(=O)NC(=O)c3ccc(N4CCN(CC5=C(c6ccc(Cl)cc6)CC(C)(C)CC5)CC4)cc3Oc3cnc4[nH]ccc4c3)cc2S(=O)(=O)C(F)(F)F)CC1 [Example 230, 4-(4-{[2-(4-chlorophenyl)-4,4-dimethylcyclohex-1-en-1-yl]methyl}piperazin-1-yl)-N-({4-[(4-fluoro-1-methylpiperidin-4-yl)methoxy]-3-[(trifluoromethyl)sulfonyl]phenyl}sulfonyl)-2-(1H-pyrrolo[2,3-b]pyridin-5-yloxy)benzamide]
- EC50 [1]: 52.8 nM

SMILES: CC1(C)CCC(CN2CCN(c3ccc(C(=O)NS(=O)(=O)c4ccc(NC5CCN(C(CF)CF)CC5)c([N+](=O)[O-])c4)c(Oc4cnc5[nH]ccc5c4)c3)CC2)=C(c2ccc(Cl)cc2)C1 [Example 95, 4-(4-{[2-(4-chlorophenyl)-4,4-dimethylcyclohex-1-en-1-yl]methyl}piperazin-1-yl)-N-{[4-({1-[2-fluoro-1-(fluoromethyl)ethyl]piperidin-4-yl}amino)-3-nitrophenyl]sulfonyl}-2-(1H-pyrrolo[2,3-b]pyridin-5-yloxy)benzamide]
- EC50 [1]: 29.5 nM

SMILES: CC1(C)CCC(CN2CCN(c3ccc(C(=O)NS(=O)(=O)c4ccc(N[C@@H]5CCN(CC(F)F)C5)c([N+](=O)[O-])c4)c(Oc4cnc5[nH]ccc5c4)c3)CC2)=C(c2ccc(Cl)cc2)C1 [Example 180, 4-(4-{[2-(4-chlorophenyl)-4,4-dimethylcyclohex-1-en-1-yl]methyl}piperazin-1-yl)-N-[(4-{[(3R)-1-(2,2-difluoroethyl)pyrrolidin-3-yl]amino}-3-nitrophenyl)sulfonyl]-2-(1H-pyrrolo[2,3-b]pyridin-5-yloxy)benzamide]
- EC50 [1]: 11.8 nM

SMILES: CC1(C)CCC(CN2CCN(c3ccc(C(=O)NS(=O)(=O)c4ccc(N[C@@H]5CCN(C6CC6)C5)c([N+](=O)[O-])c4)c(Oc4cnc5[nH]ccc5c4)c3)CC2)=C(c2ccc(Cl)cc2)C1 [Example 144, 4-(4-{[2-(4-chlorophenyl)-4,4-dimethylcyclohex-1-en-1-yl]methyl}piperazin-1-yl)-N-[(4-{[(3R)-1-cyclopropylpyrrolidin-3-yl]amino}-3-nitrophenyl)sulfonyl]-2-(1H-pyrrolo[2,3-b]pyridin-5-yloxy)benzamide]
- EC50 [1]: 21.2 nM

SMILES: CC1(C)CCC(CN2CCN(c3ccc(C(=O)NS(=O)(=O)c4ccc(OCC5CCCC(=O)C5)c([N+](=O)[O-])c4)c(Oc4cnc5[nH]ccc5c4)c3)CC2)=C(c2ccc(Cl)cc2)C1 (centres unmarked) [Example 205, 4-(4-{[2-(4-chlorophenyl)-4,4-dimethylcyclohex-1-en-1-yl]methyl}piperazin-1-yl)-N-({3-nitro-4-[(3-oxocyclohexyl)methoxy]phenyl}sulfonyl)-2-(1H-pyrrolo[2,3-b]pyridin-5-yloxy)benzamide]
- EC50 [1]: 10.6 nM

SMILES: CC1(C)CCC(CN2CCN(c3ccc(C(=O)NS(=O)(=O)c4ccc(N[C@@H]5CCN(C(CF)CF)C5)c([N+](=O)[O-])c4)c(Oc4cnc5[nH]ccc5c4)c3)CC2)=C(c2ccc(Cl)cc2)C1 [Example 207, 4-(4-{[2-(4-chlorophenyl)-4,4-dimethylcyclohex-1-en-1-yl]methyl}piperazin-1-yl)-N-{[4-({(3R)-1-[2-fluoro-1-(fluoromethyl)ethyl]pyrrolidin-3-yl}amino)-3-nitrophenyl]sulfonyl}-2-(1H-pyrrolo[2,3-b]pyridin-5-yloxy)benzamide]
- EC50 [1]: 3.76 nM

SMILES: CC1(C)CC(c2ccc(Cl)cc2)=C(CN2CCN(c3ccc(C(=O)NS(=O)(=O)c4cnc(OCC5CCOCC5)c(C#N)c4)c(Oc4cnc5[nH]ccc5c4)c3)CC2)CO1 [Example 35, 4-(4-{[4-(4-chlorophenyl)-6,6-dimethyl-5,6-dihydro-2H-pyran-3-yl]methyl}piperazin-1-yl)-N-{[5-cyano-6-(tetrahydro-2H-pyran-4-ylmethoxy)pyridin-3-yl]sulfonyl}-2-(1H-pyrrolo[2,3-b]pyridin-5-yloxy)benzamide]
- EC50 [1]: 291 nM

SMILES: CC1(C)CCC(CN2CCN(c3ccc(C(=O)NS(=O)(=O)c4ccc(NC[C@H]5CCN(C6COC6)C5)c([N+](=O)[O-])c4)c(Oc4cnc5[nH]ccc5c4)c3)CC2)=C(c2ccc(Cl)cc2)C1 [Example 195, 4-(4-{[2-(4-chlorophenyl)-4,4-dimethylcyclohex-1-en-1-yl]methyl}piperazin-1-yl)-N-{[3-nitro-4-({[(3R)-1-oxetan-3-ylpyrrolidin-3-yl]methyl}amino)phenyl]sulfonyl}-2-(1H-pyrrolo[2,3-b]pyridin-5-yloxy)benzamide]
- EC50 [1]: 2.07 nM

SMILES: CC1(C)CCC(CN2CCN(c3ccc(C(=O)NS(=O)(=O)c4ccc(NCCCNC5CC5)c([N+](=O)[O-])c4)c(Oc4cnc5[nH]ccc5c4)c3)CC2)=C(c2ccc(Cl)cc2)C1 [Example 291, 4-(4-{[2-(4-chlorophenyl)-4,4-dimethylcyclohex-1-en-1-yl]methyl}piperazin-1-yl)-N-[(4-{[3-(cyclopropylamino)propyl]amino}-3-nitrophenyl)sulfonyl]-2-(1H-pyrrolo[2,3-b]pyridin-5-yloxy)benzamide]
- EC50 [1]: 16.1 nM

SMILES: CN1CCC(Nc2ccc(S(=O)(=O)NC(=O)c3ccc(N4CCN(CC5=C(c6ccc(Cl)cc6)CC(C)(C)CC5)CC4)cc3Oc3ccc4[nH]ccc4c3)cc2[N+](=O)[O-])CC1 [Example 90, 4-(4-{[2-(4-chlorophenyl)-4,4-dimethylcyclohex-1-en-1-yl]methyl}piperazin-1-yl)-2-(1H-indol-5-yloxy)-N-({4-[(1-methylpiperidin-4-yl)amino]-3-nitrophenyl}sulfonyl)benzamide]
- EC50 [1]: 63 nM
- EC50 (RS4-11, Table 5, direct comparison Z=N with corresponding analogs Z=C, 11 EC50): 63 nM

SMILES: CC1(C)CCC(CN2CCN(c3ccc(C(=O)NS(=O)(=O)c4ccc(NC[C@H]5CC[C@H](O)C5)c([N+](=O)[O-])c4)c(Oc4cnc5[nH]ccc5c4)c3)CC2)=C(c2ccc(Cl)cc2)C1 [Example 157, 4-(4-{[2-(4-chlorophenyl)-4,4-dimethylcyclohex-1-en-1-yl]methyl}piperazin-1-yl)-N-{[4-({[(1S,3S)-3-hydroxycyclopentyl]methyl}amino)-3-nitrophenyl]sulfonyl}-2-(1H-pyrrolo[2,3-b]pyridin-5-yloxy)benzamide]
- EC50 [1]: 10.9 nM

SMILES: CC1(C)CC(c2ccc(Cl)cc2)=C(CN2CCN(c3ccc(C(=O)NS(=O)(=O)c4ccc(NCC5COCCO5)c([N+](=O)[O-])c4)c(Oc4cnc5[nH]ccc5c4)c3)CC2)CO1 (centres unmarked) [Example 31, 4-(4-{[4-(4-chlorophenyl)-6,6-dimethyl-5,6-dihydro-2H-pyran-3-yl]methyl}piperazin-1-yl)-N-({4-[(1,4-dioxan-2-ylmethyl)amino]-3-nitrophenyl}sulfonyl)-2-(1H-pyrrolo[2,3-b]pyridin-5-yloxy)benzamide]
- EC50 [1]: 15.7 nM

SMILES: CC1(C)CCC(CN2CCN(c3ccc(C(=O)NS(=O)(=O)c4ccc(NCC5CN(CC(=O)O)CCO5)c([N+](=O)[O-])c4)c(Oc4cnc5[nH]ccc5c4)c3)CC2)=C(c2ccc(Cl)cc2)C1 (centres unmarked) [Example 216, (2-{[(4-{[4-(4-{[2-(4-chlorophenyl)-4,4-dimethylcyclohex-1-en-1-yl]methyl}piperazin-1-yl)-2-(1H-pyrrolo[2,3-b]pyridin-5-yloxy)benzoyl]sulfamoyl}-2-nitrophenyl)amino]methyl}morpholin-4-yl)acetic acid]
- EC50 [1]: 683 nM

SMILES: CC(=O)N1CC[C@@H](Nc2ccc(S(=O)(=O)NC(=O)c3ccc(N4CCN(CC5=C(c6ccc(Cl)cc6)CC(C)(C)CC5)CC4)cc3Oc3cnc4[nH]ccc4c3)cc2[N+](=O)[O-])C1 [Example 154, N-[(4-{[(3R)-1-acetylpyrrolidin-3-yl]amino}-3-nitrophenyl)sulfonyl]-4-(4-{[2-(4-chlorophenyl)-4,4-dimethylcyclohex-1-en-1-yl]methyl}piperazin-1-yl)-2-(1H-pyrrolo[2,3-b]pyridin-5-yloxy)benzamide]
- EC50 [1]: 26.5 nM

SMILES: CC1(C)CCC(CN2CCN(c3ccc(C(=O)NS(=O)(=O)c4ccc(OCc5ccoc5)c([N+](=O)[O-])c4)c(Oc4cnc5[nH]ccc5c4)c3)CC2)=C(c2ccc(Cl)cc2)C1 [Example 279, 4-(4-{[2-(4-chlorophenyl)-4,4-dimethylcyclohex-1-en-1-yl]methyl}piperazin-1-yl)-N-{[4-(3-furylmethoxy)-3-nitrophenyl]sulfonyl}-2-(1H-pyrrolo[2,3-b]pyridin-5-yloxy)benzamide]
- EC50 [1]: 225 nM

SMILES: CC1(C)CCC(CN2CCN(c3ccc(C(=O)NS(=O)(=O)c4ccc(NCC5COCCN5C5CCOC5)c([N+](=O)[O-])c4)c(Oc4cnc5[nH]ccc5c4)c3)CC2)=C(c2ccc(Cl)cc2)C1 (centres unmarked) [Example 171, 4-(4-{[2-(4-chlorophenyl)-4,4-dimethylcyclohex-1-en-1-yl]methyl}piperazin-1-yl)-N-[(3-nitro-4-{[(4-tetrahydrofuran-3-ylmorpholin-3-yl)methyl]amino}phenyl)sulfonyl]-2-(1H-pyrrolo[2,3-b]pyridin-5-yloxy)benzamide]
- EC50 [1]: 52.7 nM

SMILES: CC1(C)CCC(CN2CCN(c3ccc(C(=O)NS(=O)(=O)c4ccc(NC5CCN(C(C)(C)C)CC5)c([N+](=O)[O-])c4)c(Oc4cnc5[nH]ccc5c4)c3)CC2)=C(c2ccc(Cl)cc2)C1 [Example 227, N-({4-[(1-tert-butylpiperidin-4-yl)amino]-3-nitrophenyl}sulfonyl)-4-(4-{[2-(4-chlorophenyl)-4,4-dimethylcyclohex-1-en-1-yl]methyl}piperazin-1-yl)-2-(1H-pyrrolo[2,3-b]pyridin-5-yloxy)benzamide]
- EC50 [1]: 7.36 nM

SMILES: CC1(C)CCC(CN2CCN(c3ccc(C(=O)NS(=O)(=O)c4cnc(NCC5CCOCC5)c([N+](=O)[O-])c4)c(Oc4cnc5[nH]ccc5c4)c3)CC2)=C(c2ccc(Cl)cc2)C1 [Example 364, 4-(4-{[2-(4-chlorophenyl)-4,4-dimethylcyclohex-1-en-1-yl]methyl}piperazin-1-yl)-N-({5-nitro-6-[(tetrahydro-2H-pyran-4-ylmethyl)amino]pyridin-3-yl}sulfonyl)-2-(1H-pyrrolo[2,3-b]pyridin-5-yloxy)benzamide]
- EC50 [1]: 11.2 nM

SMILES: CC1(C)CCC(CN2CCN(c3ccc(C(=O)NS(=O)(=O)c4ccc(NN5CCN(C6CCOCC6)CC5)c([N+](=O)[O-])c4)c(Oc4cnc5[nH]ccc5c4)c3)CC2)=C(c2ccc(Cl)cc2)C1 [Example 237, 4-(4-{[2-(4-chlorophenyl)-4,4-dimethylcyclohex-1-en-1-yl]methyl}piperazin-1-yl)-N-[(3-nitro-4-{[4-(tetrahydro-2H-pyran-4-yl)piperazin-1-yl]amino}phenyl)sulfonyl]-2-(1H-pyrrolo[2,3-b]pyridin-5-yloxy)benzamide]
- EC50 [1]: 53.2 nM
